For seven compounds, IC85 results are on record in patent EP2712863B1, “Novel inhibitors of bacterial biofilms and related methods” (Sequoia Sciences, Inc., priority 2012, dated 2014).

≈ marks a conversion by molar mass, not a printed value. Like-named read-outs stand apart in the source and are kept apart here. Bounds are passed on as bounds.

The subject of one test is P. aeruginosa. In words: Biofilm growth assay (spreading biofilm on semi-solid agar). In kind it is cell-based. Conditions: Pseudomonas aeruginosa, concentration that reduces the area of the spreading biofilm by >= 85%, read-out: P. aeruginosa. The text has this:
(§1) "Biofilm Growth Assay" refers to an assay performed on semi-solid agar surface where the bacteria collectively move out from an inoculation point. To those skilled in the art, the act of bacteria collectively moving out from an inoculation point on a semi-solid surface may be referred to as swarming or a spreading biofilm. (Anderson, et al Microbiology, 2003, 149, 37-46; Daniels, et al. FEMS Microbiology Reviews, 2004, 28, 261-289). The procedure to perform this assay is described in detail in the Examples. This type of surface motility by bacteria has been reported in the literature by those skilled in the art.
(§2) The biofilm growth assay was carried out to measure swarming or biofilm spreading on semi-solid agar media in round plates (for example, 100 × 15 mm), also referred to as Petri dishes. For E. coli, the plates contained LB medium with 0.6% agar and 0.5% glucose. P. aeruginosa plates were made with M8 agar supplemented with 0.2% glucose, 100 µM CaCl2, 1 mM MgSO4, and 0.5% Casamino acids. The agar plates of this assay consisted of 0.4% to 0.7% agar (Bacto or Noble agar), although other media may also be used as described in the literature and known to those skilled in the art. Test compounds at the desired concentration were added to the cooled, autoclaved media. Portions of the media were then poured into the plates (20 mL/plate), and the plates allowed to dry at room temperature for approximately 3 to 4 hours. Alternatively, however, plates may be dried in a laminar flow hood for approximately fifteen to twenty minutes. Overnight cultures were grown in a 37°C shaker in LB (E. coli) or TSB (P. aeruginosa). Plates were inoculated by placing 5 µL of the appropriate overnight culture in the centers of the plates. The plates then were incubated overnight at 37°C. The area of the zone of spreading bacteria was then measured and replicates are averaged. Percent inhibition was calculated as 100 × (area without compound - area with compound)/(area without compound). An active compound was considered that which reduces the area of the spreading biofilm compared to negative controls by greater than or equal to 85%. The values shown in Table 1 are the concentrations of compounds (µg/ml) tested in the biofilm growth assay that reduce the area of the spreading biofilm compared to negative controls by greater than or equal to 85% unless noted differently in Table 1. A > ("greater than" symbol) as used in Table 1 is well understood to those skilled in the art as an indication that the listed concentration was not effective at this concentration.
(§3) All of the compounds shown in Tables 2, 3, 4, and 5, below, were prepared semi-synthetically from oleanolic acid, except for Compounds 2 and 3. Compound 2 was prepared from ursolic acid. Compound 3 was prepared from hederagenin, but could also be prepared from an oleanolic acid analog with a hydroxyl at C23 or C24. These compounds were tested in the spreading biofilm assay according to the methods detailed in Example I, above. The values shown in Tables 2, 3, 4, and 5 are the concentrations of compounds tested in the biofilm growth assay that reduce the area of the spreading biofilm compared to negative controls by greater than or equal to 85%. Table 2. Compound 1 and its Analogs and their inhibitory concentrations in the biofilm growth assay as detailed in Example I, above

A further test has as its system E. coli. The description is as above. In kind it is cell-based. Conditions: Escherichia coli, concentration that reduces the area of the spreading biofilm by >= 85%, read-out: E. coli.
From the text: as §1, §2, §3

Regarding `CC1(C)CC[C@]2(c3n[nH]c(O)c3N3CCOCC3)CC[C@]3(C)C(=CCC4[C@@]5(C)Cc6c(n[nH]c6N)C(C)(C)C5CC[C@]43C)C2C1` (stereo partly drawn) [Compound 88, 3-((4aS,6aS,6bR,13aR)-12-Amino-2,2,6a,6b,9,9,13a-heptamethyl-2,3,4,4a,5,6,6a,6b,7,8,8a,9,11,13,13a,13b,14,15b-octadecahydro-1H-chryseno[1,2-f]indazol-4a-yl)-4-morpholino-1H-pyrazol-5-ol], the IC85 is 0.25 µg/mL (≈ 0.405 µM) in the test on P. aeruginosa (Table 4) and 0.5 µg/mL (≈ 0.811 µM) in the test with E. coli (Table 4).
For `CC1(C)CC[C@]2(c3n[nH]c(O)c3CCO)CC[C@]3(C)C(=CCC4[C@@]5(C)Cc6c(n[nH]c6N)C(C)(C)C5CC[C@]43C)C2C1` (stereo partly drawn) [Compound 81, 3-((4aS,6aS,6bR,13aR)-12-Amino-2,2,6a,6b,9,9,13a-heptamethyl-2,3,4,4a,5,6,6a,6b,7,8,8a,9,11,13,13a,13b,14,15b-octadecahydro-1H-chryseno[1,2-f]indazol-4a-yl)-4-(2-hydroxyethyl)-1H-pyrazol-5-ol], the IC85 in the test with P. aeruginosa (Table 4) came out at 0.5 µg/mL (≈ 0.868 µM); in the test with E. coli (Table 4), 1 µg/mL (≈ 1.74 µM).
Take `CC1(C)CC[C@]2(C(=O)O)CC[C@]3(C)C(=C(c4cccc5[nH]ccc45)CC4[C@@]5(C)Cc6c(n[nH]c6N)C(C)(C)C5CC[C@]43C)C2C1` (stereo partly drawn) [Compound 48, (4aS,6aS,6bR,13aR)-12-Amino-15-(1H-indol-4-yl)-2,2,6a,6b,9,9,13a-heptamethyl-2,3,4,4a,5,6,6a,6b,7,8,8a,9,11,13,13a,13b,14,15b-octadecahydro-1H-chryseno[1,2-f]indazole-4a-carboxylic acid]: the IC85 turned out to be 0.5 µg/mL (≈ 0.821 µM) in the test on P. aeruginosa (Table 3) and 1 µg/mL (≈ 1.64 µM) with E. coli (Table 3).
In the case of `CC1(C)CC[C@]2(C(=O)O)CC[C@]3(C)C(=C(c4cccc(CN)c4)CC4[C@@]5(C)Cc6c(n[nH]c6N)C(C)(C)C5CC[C@]43C)C2C1` (stereo partly drawn) [Compound 18, (4aS,6aS,6bR,13aR)-12-Amino-15-(3-(aminomethyl)phenyl)-2,2,6a,6b,9,9,13a-heptamethyl-2,3,4,4a,5,6,6a,6b,7,8,8a,9,11,13,13a,13b,14,15b-octadecahydro-1H-chryseno[1,2-f]indazole-4a-carboxylic acid], the IC85 in the test with P. aeruginosa (Table 3) is 0.5 µg/mL (≈ 0.835 µM); with E. coli (Table 3), 1 µg/mL (≈ 1.67 µM).
Turning to `CC1(C)CC[C@]2(C(=O)O)CC[C@]3(C)C(=C(c4cn[nH]c4)CC4[C@@]5(C)Cc6c(n[nH]c6N)C(C)(C)[C@@H]5CC[C@]43C)[C@@H]2C1` (stereo partly drawn) [Compound 27, (4aS,6aS,6bR,8aR,13aR,15bS)-12-Amino-2,2,6a,6b,9,9,13a-heptamethyl-15-(1H-pyrazol-4-yl)-2,3,4,4a,5,6,6a,6b,7,8,8a,9,11,13,13a,13b,14,15b-octadecahydro-1 H-chryseno[1,2-f]indazole-4a-carboxylic acid], the IC85 with P. aeruginosa (Table 3) is 1 µg/mL (≈ 1.79 µM); with E. coli (Table 3) it was above 2 µg/mL.
As to `CC1(C)CC[C@]2(C(=O)O)CC[C@]3(C)C(=C(c4ccoc4CN4CCCC4)CC4[C@@]5(C)Cc6c(n[nH]c6N)C(C)(C)C5CC[C@]43C)C2C1` (stereo partly drawn) [Compound 37, (4aS,6aS,6bR,13aR)-12-Amino-2,2,6a,6b,9,9,13a-heptamethyl-15-(2-(pyrrolidin-1-ylmethyl)furan-3-yl)-2,3,4,4a,5,6,6a,6b,7,8,8a,9,11,13,13a,13b,14,15b-octadecahydro-1H-chryseno[1,2-f]indazole-4a-carboxylic acid], the values for the IC85 in the test with P. aeruginosa (Table 3) and with E. coli (Table 3) were above 1 µg/mL and 1 µg/mL (≈ 1.56 µM), respectively.
Consider `CC1(C)CC[C@]2(C(=O)O)CC[C@]3(C)C(=C(c4cccc(N)c4)CC4[C@@]5(C)Cc6c(n[nH]c6N)C(C)(C)[C@@H]5CC[C@]43C)[C@@H]2C1` (stereo partly drawn) [Compound 15, (4aS,6aS,6bR,8aR,13aR,15bS)-12-Amino-15-(3-aminophenyl)-2,2,6a,6b,9,9,13a-heptamethyl-2,3,4,4a,5,6,6a,6b,7,8,8a,9,11,13,13a,13b,14,15b-octadecahydro-1H-chryseno[1,2-f]indazole-4a-carboxylic acid], for which the IC85 amounted to 0.25 µg/mL (≈ 0.427 µM) in the test on P. aeruginosa (Table 3) and 1 µg/mL (≈ 1.71 µM) in the test on E. coli (Table 3).
